Data reported in PubChem BioAssay AID248 (DTP/NCI, 2004).
“And” between values parts separate entries of the source, which are not always exact repeats. Identical values can stand only once. Toxic doses and inconclusive results are not listed. Cut-off read from the data, not from the text of the source: active = T/C of 150% or more; inactive = T/C below 125%.

System: L1210 leukemia ip in BDF1 mice, survival T/C
Assay: NCI In Vivo Anticancer Drug Screen. Data for tumor model L1210 Leukemia (intraperitoneal) in B6D2F1 (BDF1) mice
Details: endpoint: mean survival time, higher = longer survival
Summary of the method: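 In this screen, tumor-bearing mice given compound are compared to those given vehicle, and their survival values are reported as a treated-to-control quotient.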

[1] = dose: 100.0 mg/kg/injection, schedule: Q01DX009 (ip), vehicle: Klucel (hydroxypropylcellulose) (HPC)
[2] = dose: 200.0 mg/kg/injection, schedule: Q01DX009 (ip), vehicle: Klucel (hydroxypropylcellulose) (HPC)
[3] = dose: 400.0 mg/kg/injection, schedule: Q01DX009 (ip), vehicle: Klucel (hydroxypropylcellulose) (HPC)
[4] = dose: 100.0 mg/kg/injection, schedule: Q01DX001 (ip), vehicle: saline
[5] = dose: 200.0 mg/kg/injection, schedule: Q01DX001 (ip), vehicle: saline
[6] = dose: 400.0 mg/kg/injection, schedule: Q01DX001 (ip), vehicle: saline
[7] = dose: 100.0 mg/kg/injection, schedule: Q04DX003 (ip), vehicle: saline with Tween-80
[8] = dose: 200.0 mg/kg/injection, schedule: Q04DX003 (ip), vehicle: saline with Tween-80
[9] = dose: 400.0 mg/kg/injection, schedule: Q04DX003 (ip), vehicle: saline with Tween-80
[10] = dose: 100.0 mg/kg/injection, schedule: Q01DX009 (ip), vehicle: saline
[11] = dose: 200.0 mg/kg/injection, schedule: Q01DX009 (ip), vehicle: saline
[12] = dose: 400.0 mg/kg/injection, schedule: Q01DX009 (ip), vehicle: saline
[13] = dose: 100.0 mg/kg/injection, schedule: Q04DX003 (ip), vehicle: Klucel (hydroxypropylcellulose) (HPC)
[14] = dose: 100.0 mg/kg/injection, schedule: Q01DX001 (ip), vehicle: carboxymethylcellulose (CMC)
[15] = dose: 200.0 mg/kg/injection, schedule: Q01DX001 (ip), vehicle: carboxymethylcellulose (CMC)
[16] = dose: 400.0 mg/kg/injection, schedule: Q01DX001 (ip), vehicle: carboxymethylcellulose (CMC)
[17] = dose: 200.0 mg/kg/injection, schedule: Q04DX003 (ip), vehicle: Klucel (hydroxypropylcellulose) (HPC)
[18] = dose: 400.0 mg/kg/injection, schedule: Q04DX003 (ip), vehicle: Klucel (hydroxypropylcellulose) (HPC)
[19] = dose: 200.0 mg/kg/injection, schedule: Q01DX009 (ip), vehicle: saline with Tween-80
[20] = dose: 400.0 mg/kg/injection, schedule: Q01DX009 (ip), vehicle: saline with Tween-80

Measured: T/C

CC(Cl)CN(CC(C)Cl)C(=O)Oc1ccccc1[N+](=O)[O-] (stereo unspecified)
inactive: [1] 93 % of control | [2] 104 % of control | [3] 93 % of control

COC1CC(OS(=O)(=O)c2ccc(C)cc2)C(OS(=O)(=O)c2ccc(C)cc2)C(C)O1 (stereo unspecified)
inactive: [4] 100 % of control | [5] 98 % of control | [6] 98 % of control

COc1ccc(CNc2ccccc2C(=O)O)cc1OC
inactive: [4] 91 % of control | [6] 103 % of control

CCC(C)C(C(=O)O)c1ccccc1 (stereo unspecified)
inactive: [7] 100 % of control | [8] 98 % of control | [9] 94 % of control

CC(=O)Nc1nn[nH]n1
inactive: dose: 100.0 mg/kg/injection, schedule: Q01DX001 (ip), vehicle: other 93 % of control | [1] 90 % of control | [7] 94 % of control | dose: 200.0 mg/kg/injection, schedule: Q01DX001 (ip), vehicle: other 96 % of control | [2] 91 % of control | [8] 94 % of control | dose: 400.0 mg/kg/injection, schedule: Q01DX001 (ip), vehicle: other 96 % of control | [9] 90 % of control

c1ccc([Si]2(c3ccccc3)O[Si](c3ccccc3)(c3ccccc3)O[Si](c3ccccc3)(c3ccccc3)O2)cc1
inactive: dose: 75.0 mg/kg/injection, schedule: Q01DX001 (ip), vehicle: saline 93 % of control | dose: 150.0 mg/kg/injection, schedule: Q01DX001 (ip), vehicle: saline 87 % of control

O=C1COC(=O)N1
inactive: [10] 100 % of control | [11] 100 % of control | [12] 100 % of control

COC(=O)CC(=O)c1cc(C(C)(C)C)cc(C(C)(C)C)c1
inactive: dose: 100.0 mg/kg/injection, schedule: Q04DX003 (ip), vehicle: DMSO 96 % of control | dose: 200.0 mg/kg/injection, schedule: Q04DX003 (ip), vehicle: DMSO 103 % of control

CCC1(C)C(=O)N(C)C(=O)N1Br (stereo unspecified)
inactive: dose: 25.0 mg/kg/injection, schedule: Q01DX009 (ip), vehicle: Klucel (hydroxypropylcellulose) (HPC) 96 % of control | dose: 50.0 mg/kg/injection, schedule: Q01DX009 (ip), vehicle: Klucel (hydroxypropylcellulose) (HPC) 101 % of control | [13] 97 % of control

CC(=O)N(O)c1ccc(-c2cc3ccccc3[nH]2)cc1
inactive: [14] 101 % of control | [15] 93 % of control | [16] 93 % of control

Cc1cc(O)c(O)c([N+](=O)[O-])c1
inactive: [7] 96 % of control | [8] 92 % of control | [9] 101 % of control

c1ccc(C2(c3ccccc3)CC([P+](c3ccccc3)(c3ccccc3)c3ccccc3)=NN2)cc1
inactive: [4] 108 % of control | [5] 115 % of control

Cc1ccc(Cl)cc1NC(=O)c1ccc(Cl)cc1Cl
inactive: [1] 110 % of control | [13] 92 % of control | [2] 91 % of control | [17] 95 % of control | [3] 89 % of control | [18] 88 % of control

O=[N+]([O-])c1cccc(/C=C/CCOc2ccccc2)c1
inactive: dose: 100.0 mg/kg/injection, schedule: Q01DX009 (sc), vehicle: olive oil, sesame oil, peanut oil 97 % of control | dose: 100.0 mg/kg/injection, schedule: Q04DX003 (sc), vehicle: olive oil, sesame oil, peanut oil 101 % of control | dose: 200.0 mg/kg/injection, schedule: Q01DX009 (sc), vehicle: olive oil, sesame oil, peanut oil 114 % of control | dose: 200.0 mg/kg/injection, schedule: Q04DX003 (sc), vehicle: olive oil, sesame oil, peanut oil 100 % of control | dose: 400.0 mg/kg/injection, schedule: Q01DX009 (sc), vehicle: olive oil, sesame oil, peanut oil 109 % of control | dose: 400.0 mg/kg/injection, schedule: Q04DX003 (sc), vehicle: olive oil, sesame oil, peanut oil 103 % of control

C#CCOS(=O)OCCCCCCCCCC (stereo unspecified) (tested in a mixture with another compound)
inactive: [13] 105 % of control | [17] 91 % of control | [18] 94 % of control

CC(=O)c1cc(-c2ccccc2)nc2c(C)c(Cl)ccc12
inactive: [14] 90 % of control | [15] 92 % of control | [16] 90 % of control

COC(=O)C#CCCC#CC(C)=O
inactive: dose: 18.0 mg/kg/injection, schedule: Q04DX002 (ip), vehicle: gum acacia 96 % of control | dose: 37.0 mg/kg/injection, schedule: Q04DX002 (ip), vehicle: gum acacia 107 % of control | dose: 75.0 mg/kg/injection, schedule: Q04DX002 (ip), vehicle: gum acacia 102 % of control and 104 % of control

Cc1ccc(NC(=O)Nc2cccc(C(F)(F)F)c2)cc1NC(=O)Nc1cccc(C(F)(F)F)c1
inactive: [7] 93 % of control | [19] 92 % of control | [20] 103 % of control | [9] 88 % of control

CCOC(=O)C1=C2C(C(=O)OCC)C(O)=C(C(=O)OCC)C2C(C(=O)OCC)C1=O (stereo unspecified)
inactive: [4] 103 % of control | [10] 104 % of control | dose: 100.0 mg/kg/injection, schedule: Q04DX003 (ip), vehicle: saline 97 % of control | [5] 92 % of control | [11] 104 % of control | dose: 200.0 mg/kg/injection, schedule: Q04DX003 (ip), vehicle: saline 103 % of control | [6] 97 % of control | [12] 109 % of control | dose: 400.0 mg/kg/injection, schedule: Q04DX003 (ip), vehicle: saline 117 % of control

O=C(Cn1ccc(O)cc1=O)c1cccs1
inactive: dose: 100.0 mg/kg/injection, schedule: Q01DX009 (ip), vehicle: saline with Tween-80 102 % of control | [7] 101 % of control | [19] 100 % of control | [8] 100 % of control | [20] 98 % of control | [9] 100 % of control

O=P(O)(O)C(Cl)(Cl)Cl
inactive: dose: 50.0 mg/kg/injection, schedule: Q01DX009 (ip), vehicle: saline 100 % of control | [10] 96 % of control | dose: 100.0 mg/kg/injection, schedule: Q04DX002 (ip), vehicle: saline 92 % of control | [11] 96 % of control | dose: 200.0 mg/kg/injection, schedule: Q04DX002 (ip), vehicle: saline 99 % of control

Cc1nc2ccccc2c(=O)n1-c1ccccc1Cl
inactive: dose: 100.0 mg/kg/injection, schedule: Q01DX001 (ip), vehicle: saline with Tween-80 113 % of control | dose: 200.0 mg/kg/injection, schedule: Q01DX001 (ip), vehicle: saline with Tween-80 108 % of control | dose: 400.0 mg/kg/injection, schedule: Q01DX001 (ip), vehicle: saline with Tween-80 106 % of control

O=C(OCC1OC(Cl)C(OC(=O)c2ccccc2)C1OC(=O)c1ccccc1)c1ccccc1 (stereo unspecified)
inactive: dose: 100.0 mg/kg/injection, schedule: Q01DX001 (sc), vehicle: olive oil, sesame oil, peanut oil 100 % of control | dose: 200.0 mg/kg/injection, schedule: Q01DX001 (sc), vehicle: olive oil, sesame oil, peanut oil 100 % of control | dose: 400.0 mg/kg/injection, schedule: Q01DX001 (sc), vehicle: olive oil, sesame oil, peanut oil 96 % of control

Nc1nc(N)c2cc(N(CCO)CCO)ccc2n1
inactive: dose: 50.0 mg/kg/injection, schedule: Q01DX001 (ip), vehicle: saline 101 % of control | [4] 95 % of control | [5] 95 % of control
